Values quoted from earlier work in patent publication US20090155200A1, “Methods of promoting cartilage healing or cartilage integration” (priority 2004, published 2009).

System: articular cartilage defect
Conditions: pre-treatment with trypsin; Chen et al. 2000

For trypsin, the “integration and remodeling of implanted cartilage” value is listed as “improved”.
